Source: patent US20240009191A1, “METHOD AND COMPOSITION FOR THE TREATMENT OF DISEASE” (DIMERIX BIOSCIENCE PTY LTD, priority 2019, published 2024)

Legend:
Format in all cases: cell-based
[1] = target: T1, AT1R-CXCR2 heteromer (Homo sapiens, UniProt P25025+P30556); assay: BRET Gi coupling, CXCR2/Rluc8, Venus/mGsi and HA-AT1R, pre-treatment with antagonists/inverse agonists; conditions: FIGS. 6-15
T1 sequence (P25025 1-360): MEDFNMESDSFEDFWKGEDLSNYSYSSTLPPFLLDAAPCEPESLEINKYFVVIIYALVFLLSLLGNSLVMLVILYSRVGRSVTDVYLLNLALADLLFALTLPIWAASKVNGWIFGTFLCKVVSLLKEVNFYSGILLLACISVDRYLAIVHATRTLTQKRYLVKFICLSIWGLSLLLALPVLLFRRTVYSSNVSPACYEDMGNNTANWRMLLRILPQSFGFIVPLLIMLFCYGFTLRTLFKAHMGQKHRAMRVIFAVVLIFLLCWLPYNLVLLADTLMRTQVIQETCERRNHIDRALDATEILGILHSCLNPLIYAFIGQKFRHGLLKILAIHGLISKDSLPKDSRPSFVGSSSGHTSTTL
T1 sequence (P30556 1-359): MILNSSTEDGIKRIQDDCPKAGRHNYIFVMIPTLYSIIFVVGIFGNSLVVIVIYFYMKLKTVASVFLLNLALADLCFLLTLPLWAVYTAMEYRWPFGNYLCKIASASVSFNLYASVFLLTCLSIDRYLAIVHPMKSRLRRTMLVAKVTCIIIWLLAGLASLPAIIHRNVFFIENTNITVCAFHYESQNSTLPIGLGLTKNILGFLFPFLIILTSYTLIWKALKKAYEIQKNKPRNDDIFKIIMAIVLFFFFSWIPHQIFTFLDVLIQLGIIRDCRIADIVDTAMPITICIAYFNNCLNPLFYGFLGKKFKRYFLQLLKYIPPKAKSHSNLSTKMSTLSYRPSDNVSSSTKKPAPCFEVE
Experimental: (§1) HEK293FT cells were seeded in 6-well plates at a density of approximately 700,000 cells/well and maintained at 37° C., 5% CO2 in Complete Media (DMEM containing 0.3 mg/ml glutamine, 100 IU/ml penicillin and 100 μg/ml streptomycin (Gibco/Thermo Fisher)) supplemented with 10% fetal calf serum (FCS; Bovogen). Transient transfections were carried out 24 h after seeding using FuGene6™ (Promega) according to manufacturer instructions. 24 h post-transfection, cells were washed with PBS, detached using 0.05% trypsin/0.53 mM EDTA, resuspended in HEPES-buffered phenol red free Complete Media containing 5% FCS and added to a poly-L-lysine-coated white 96-well microplate (Greiner Bio-One). 48 h post-transfection, bioluminescence resonance energy transfer (BRET) assays were carried out following pre-incubation of cells with EnduRen™ (Promega) at a final concentration of 30 μM, at 37° C., 5% CO2 for 2 h. BRET measurements were taken at 37° C. using the LUMlstar™ or CLARIOstar™ (BMG Labtech).
(§2) For antagonist/inverse agonist assays, cells were pre-incubated with EnduRen for 1.5 hours, followed by the addition of vehicle or antagonists/inverse agonists (10 μM) for another 30 minutes.
(§3) The BRET signal observed between interacting proteins is normalized by subtracting the background BRET ratio. […] In the following examples, the second calculation will be used and the signal is described as ligand-induced BRET′. Furthermore, for data shown in FIGS. 4 to 20, all data points in a given set are corrected relative to the final data point prior to agonist treatment, which is fixed to zero. In keys on FIGS. 7 to 20, “>” means “followed by after 50 minutes”, with agonists added at time zero on the x-axes.
(§4) Prior to agonist treatment (added at 0 minutes), a baseline BRET signal was recorded for each of the combinations for 20 minutes. Data were calculated as ligand-induced BRET relative to the ‘vehicle followed by vehicle’ (veh>veh) data set.

[2] = target: T1, AT1R-CXCR2 heteromer; assay: BRET trafficking of CXCR2/Rluc8 (Venus/Kras, Rab5, Rab8) with HA-AT1R, pre-treatment with vehicle or antagonists/inverse agonists; conditions: 50 minutes after pre-treatment (10 μM)
Experimental: as §1, §2, §3, §4

[3] = target: T2, AT1R-CXCR2 heteromer (Homo sapiens, UniProt P25025+P30556); assay: BRET trafficking of AT1R/Rluc8 (Venus/Kras, Rab5) with unlabelled CXCR2, pre-treatment with vehicle or antagonists/inverse agonists; conditions: 50 minutes after pre-treatment (10 μM)
T2 sequence (P30556 1-359): T1 sequence (P30556 1-359)
T2 sequence (P25025 1-360): T1 sequence (P25025 1-360)
Experimental: as §1, §2, §3, §4

effect of CXCL8 only on CXCR2/Rluc8-Venus/mGsi BRET ([1]; 10 nM CXCL8, 50 minutes after pre-treatment with antagonists/inverse agonists (10 μM)): not being altered
effect of AngII only on CXCR2/Rluc8-Venus/mGsi BRET ([1]; 100 nM AngII, 50 minutes after pre-treatment with antagonists/inverse agonists (10 μM)): completely inhibited
effect of both CXCL8 and AngII combined on CXCR2/Rluc8-Venus/Rab8 BRET ([2]; 10 nM CXCL8 and 100 nM AngII, FIG. 18C, 18E-18H): completely inhibited
effect of AngII on CXCR2/Rluc8-Venus/Kras BRET ([2]; 100 nM AngII only, FIG. 16B, 16D): completely inhibited
effect of AngII on CXCR2/Rluc8-Venus/Rab5 BRET ([2]; 100 nM AngII only, FIG. 17B, 17D): completely inhibited
effect of AngII on CXCR2/Rluc8-Venus/Rab8 BRET ([2]; 100 nM AngII only, FIG. 18B, 18D): completely inhibited
effect of both CXCL8 and AngII combined on AT1R/Rluc8-Venus/Kras BRET ([3]; 10 nM CXCL8 and 100 nM AngII, FIG. 19B-19F): completely inhibited
effect of both CXCL8 and AngII combined on AT1R/Rluc8-Venus/Rab5 BRET ([3]; 10 nM CXCL8 and 100 nM AngII, FIG. 20B-20F): completely inhibited
effect of AngII on AT1R/Rluc8-Venus/Kras BRET ([3]; 100 nM AngII only, FIG. 19A): completely inhibited
effect of AngII on AT1R/Rluc8-Venus/Rab5 BRET ([3]; 100 nM AngII only, FIG. 20A): completely inhibited
SMILES: CCCCC(=O)N(Cc1ccc(-c2ccccc2-c2nnn[nH]2)cc1)[C@H](C(=O)O)C(C)C [valsartan]
effect of CXCL8 and AngII combined on CXCR2/Rluc8-Venus/mGsi BRET ([1]; 10 nM CXCL8 and 100 nM AngII, 50 minutes after pre-treatment with antagonists/inverse agonists (10 μM)): indistinguishable from that observed with CXCL8 only
effect of both CXCL8 and AngII combined on CXCR2/Rluc8-Venus/Kras BRET ([2]; 10 nM CXCL8 and 100 nM AngII, FIG. 16C, 16E-16H): indistinguishable from the effect observed with CXCL8 only
effect of both CXCL8 and AngII combined on CXCR2/Rluc8-Venus/Rab5 BRET ([2]; 10 nM CXCL8 and 100 nM AngII, FIG. 17C, 17E-17H): indistinguishable from the effect observed with CXCL8 only
